This is an account of results in patent US20250213574A1, “THERAPEUTIC COMBINATIONS COMPRISING UBIQUITIN- SPECIFIC-PROCESSING PROTEASE 1 (USP1) INHIBITORS AND CHEMOTHERAPY AGENTS” (KSQ Therapeutics, Inc., priority 2022, published 2025).

“And” between values parts separate entries of the source, which are not always exact repeats. Identical values can stand only once. Like-named read-outs stand apart in the source and are kept apart here.

Holding throughout (format): cell-based
One assay has as its system ASPC1. Put plainly: Colony formation (CFU) assay, ASPC1. Particulars: ASPC1, pancreas. How it is done: (§1) In vitro experiments were conducted using the colony formation unit (CFU) assay on various cell lines. The CFU assay involved first establishing what cell plating density enabled the development of clearly interspersed colonies on a six-well plate when left to grow for around 14 days. […] At or around day 14 when clearly interspersed colonies were visible in the DMSO-treated wells, the cells were fixed and stained using 0.1% crystal violet in 10% ethanol for 20 minutes at room temperature. The plates were imaged then the amount of crystal violet stain in each well was quantified by extracting the crystal violet into 10% acetic acid and the absorbance measured at 565 nm.
(§2) For certain cell lines, multiple IC50 values were taken, and those are separated by commas. Synergy scores are in parentheticals.

The next assay deals with CAPAN2. As to the kind of experiment: Colony formation (CFU) assay, CAPAN2. Particulars: CAPAN2, pancreas, CFU ~14 days, wells with DMSO or 300 nM Compound 1, read-out: Chemotherapy nM IC50s. The protocol: as §1, §2
The test system of the next assay is COV362. Put plainly: Colony formation (CFU) assay, COV362. To be noted: COV362, 336 h, read-out: Chemotherapy nM IC50s. The protocol:
as §1, §2

For another assay, the system named is GSU. Put plainly: Colony formation (CFU) assay, GSU. To be noted: stomach, chemotherapy agent in combination with 300 nM Compound 1. How it is done:
as §1, §2

Another assay has as its system HCT15. As to the kind of experiment: Colony formation (CFU) assay, HCT15. To be noted: Homo sapiens, HCT-15, 336 h; HCT15, colon; CFU ~14 days; wells with DMSO or 300 nM Compound 1; read-out: Chemotherapy nM IC50s. How it is done: as §1, §2
A further assay deals with HPAC. Put plainly: Colony formation (CFU) assay, HPAC. To be noted: Homo sapiens, 336 h, pancreas, CFU ~14 days, wells with DMSO or 300 nM Compound 1, read-out: Chemotherapy nM IC50s. How it is done: as §1, §2
Another assay has as its system OVSAHO. As to the kind of experiment: Colony formation (CFU) assay, OVSAHO. Particulars: Homo sapiens, 336 h, ovary, CFU ~14 days, wells with DMSO or 300 nM Compound 1, read-out: Chemotherapy nM IC50s. The protocol: as §1, §2
Another assay has as its system SW948. As to the kind of experiment: Colony formation (CFU) assay, SW948. Particulars: SW948, colon; for IC50: CFU ~14 days, wells with DMSO or 300 nM Compound 1, read-out: Chemotherapy nM IC50s. The protocol: as §1, §2
A further assay deals with UWB1289. Put plainly: Colony formation (CFU) assay, UWB1289. Particulars: 336 h; UWB1289, ovary; CFU ~14 days; wells with DMSO or 300 nM Compound 1; read-out: Chemotherapy nM IC50s. The protocol:
as §1, §2

Another assay deals with various cell lines. Put plainly: Colony formation (CFU) assay, summary over cell lines of Table 1. To be noted: combination of USP1 inhibitor (Compound 1, 300 nM) and the chemotherapy agent. The protocol:
as §1
In certain cell lines, combinations of the disclosure are synergistic. In some aspects, these combinations are determined to have a Bliss score is about 6, about 7, about 8, about 9, about 10, about 11, about 12, about 13, about 14, about 15, about 16, about 17, about 18, about 19, about 20 or about 25.

For the next assay, the system named is 647V. As to the kind of experiment: Colony formation (CFU) assay, 647V. To be noted: bladder, CFU ~14 days, wells with DMSO or 300 nM Compound 1, read-out: Chemotherapy nM IC50s. How it is done: as §1, §2
Another assay deals with ACCMESO1. As to the kind of experiment: Colony formation (CFU) assay, ACCMESO1. Particulars: ACCMESO1, pleura, CFU ~14 days, wells with DMSO or 300 nM Compound 1, read-out: Chemotherapy nM IC50s. The protocol:
as §1, §2

For the next assay, the system named is HCC1806. As to the kind of experiment: Colony formation (CFU) assay, HCC1806. Particulars: HCC1806, breast; CFU ~14 days; wells with DMSO or 300 nM Compound 1; read-out: Chemotherapy nM IC50s (converted). The protocol: as §1, §2
Another assay has as its system HCT116. As to the kind of experiment: Colony formation (CFU) assay, HCT116. To be noted: HCT116, colon; CFU ~14 days; wells with DMSO or 300 nM Compound 1; read-out: Chemotherapy nM IC50s. How it is done: as §1, §2
Another assay relates to KALS1. As to the kind of experiment: Colony formation (CFU) assay, KALS1. Particulars: KALS1, nervous system; CFU ~14 days; wells with DMSO or 300 nM Compound 1; read-out: Chemotherapy nM IC50s. How it is done:
as §1, §2

The subject of another assay is KU1919. As to the kind of experiment: Colony formation (CFU) assay, KU1919. To be noted: KU1919, bladder; CFU ~14 days; wells with DMSO or 300 nM Compound 1; read-out: Chemotherapy nM IC50s. How it is done: as §1, §2
A further assay relates to KYSE270. Put plainly: Colony formation (CFU) assay, KYSE270. Particulars: KYSE270, esophagus; CFU ~14 days; wells with DMSO or 300 nM Compound 1; read-out: Chemotherapy nM IC50s. The protocol: as §1, §2
The next assay concerns KYSE70. As to the kind of experiment: Colony formation (CFU) assay, KYSE70. Particulars: KYSE70, esophagus; CFU ~14 days; wells with DMSO or 300 nM Compound 1; read-out: Chemotherapy nM IC50s. How it is done: as §1, §2
Another assay relates to MDAMB231. Put plainly: Colony formation (CFU) assay, MDAMB231. Particulars: MDAMB231, breast; CFU ~14 days; wells with DMSO or 300 nM Compound 1; read-out: Chemotherapy nM IC50s. The protocol: as §1, §2
For another assay, the system named is NCIH596. As to the kind of experiment: Colony formation (CFU) assay, NCIH596. To be noted: NCIH596, lung; CFU ~14 days; wells with DMSO or 300 nM Compound 1; read-out: Chemotherapy nM IC50s. How it is done:
as §1, §2

A further assay deals with SUM149PT. Put plainly: Colony formation (CFU) assay, SUM149PT. Particulars: breast, CFU ~14 days, wells with DMSO or 300 nM Compound 1, read-out: Chemotherapy nM IC50s. The protocol: as §1, §2
A further assay has as its system UMUC3. Put plainly: Colony formation (CFU) assay, UMUC3. Particulars: UMUC3, bladder; CFU ~14 days; wells with DMSO or 300 nM Compound 1; read-out: Chemotherapy nM IC50s. How it is done: as §1, §2
In a further assay the test system is A549. Put plainly: Colony formation (CFU) assay, A549. To be noted: Homo sapiens, 336 h; A549, lung; CFU ~14 days; wells with DMSO or 300 nM Compound 1; read-out: Chemotherapy nM IC50s. How it is done: as §1, §2
The test system of a further assay is MERO14. Put plainly: Colony formation (CFU) assay, MERO14. To be noted: 336 h, CFU ~14 days, wells with DMSO or 300 nM Compound 1, read-out: Chemotherapy nM IC50s. How it is done: as §1, §2
The subject of another assay is MERO83. Put plainly: Colony formation (CFU) assay, MERO83. To be noted: 336 h, CFU ~14 days, wells with DMSO or 300 nM Compound 1, read-out: Chemotherapy nM IC50s. How it is done: as §1, §2
A further assay has as its system MSTO211H. Put plainly: Colony formation (CFU) assay, MSTO211H. Particulars: pleura, CFU ~14 days, wells with DMSO or 300 nM Compound 1, read-out: Chemotherapy nM IC50s. The protocol: as §1, §2
Another assay relates to NCIH1915. As to the kind of experiment: Colony formation (CFU) assay, NCIH1915. To be noted: NCI-H1915, 336 h; NCIH1915, lung; CFU ~14 days; wells with DMSO or 300 nM Compound 1; read-out: Chemotherapy nM IC50s. How it is done: as §1, §2
For a further assay, the system named is NCIH2452. As to the kind of experiment: Colony formation (CFU) assay, NCIH2452. Particulars: Homo sapiens, NCI-H2452, 336 h; NCIH2452, pleura; CFU ~14 days; wells with DMSO or 300 nM Compound 1; read-out: Chemotherapy nM IC50s. How it is done: as §1, §2
Where [1] appears, read: chemotherapy agent in combination with 300 nM Compound 1.

Take `CC[C@@]1(O)C(=O)OCc2c1cc1n(c2=O)Cc2cc3ccccc3nc2-1` [Campto., camptothecin]: the synergy score in the assay on ASPC1 (setting [1]) is listed as −5; in the assay with GSU, 13; in the assay on SW948 (setting [1]), “(−3)”. Moreover, the IC50 with ASPC1 (Homo sapiens, 336 h, CFU ~14 days, wells with DMSO or 300 nM Compound 1, read-out: Chemotherapy nM IC50s) stood at 3 nM; with CAPAN2 it was 11 nM; with CAPAN2 (Homo sapiens, Capan-2, 336 h) it was 8 nM; in the assay with COV362, 274 nM; with HCT15, 5 nM; with HPAC, 5 nM. Further, the IC50 was determined as 177 nM in the assay on OVSAHO; 10 nM in the assay on SW948 (Homo sapiens, SW948, 336 h); 6 nM with SW948; 18 nM with UWB1289. Also, the “synergy of combination with USP1 inhibitor” value in the assay with various cell lines is recorded as “synergy was detected”.

Take `CO[C@@]12[C@H](COC(N)=O)C3=C(C(=O)C(C)=C(N)C3=O)N1C[C@@H]1N[C@@H]12` [Mito. C, mitomycin C]: the IC50 in the assay with 647V was 15 nM; in the assay on ACCMESO1 it was 10 nM and 13 nM; in the assay with HCC1806, 1 nM and 2 nM and < 1 nM; in the assay on HCT116 it was 19 nM; in the assay on KALS1, 632 nM; in the assay with KU1919, 16 nM. For the same molecule, the IC50 is 15 nM and 11 nM with KYSE270; 14 nM and 12 nM with KYSE70; 14 nM with MDAMB231; 10 nM in the assay with NCIH596; 5 nM with SUM149PT; 18 nM and 12 nM in the assay with UMUC3.

Take `Nc1nc2[nH]cc(CCc3ccc(C(=O)N[C@@H](CCC(=O)O)C(=O)O)cc3)c2c(=O)[nH]1` [Pemetrex, pemetrexed]: the IC50 in the assay on A549 is 6870 nM; in the assay with ACCMESO1 (ACC-MESO-1, 336 h), 172 nM; with MERO14 it was over 3000 nM; with MERO83 it was over 3000 nM; in the assay with MSTO211H (Homo sapiens, MSTO-211H, 336 h) it was 41 nM; with MSTO211H it was 50 nM. For the same molecule, the IC50 with NCIH1915 came to 185 nM; in the assay with NCIH2452 it was 48 nM.
